Assay results reported in patent publication US10190094B2, “Methods and compositions related to induced sensory neurons” (priority 2013, dated 2019).
Values joined by “and” are separate entries in the source; they are usually repeats but may differ in a detail not shown here. Equal values may be shown once. Read-outs that look alike come from different tables or passages of the source.

Experiments:
[1] = test system: BN1 and BN2 iSNs (TrpA1, TrpM8, TrpV1); assay: Calcium imaging of mouse iSNs exposed to Trp channel ligands (Map2::GCAMP5.G); format: cell-based
[2] = test system: Human iSNs (TRPA1, TRPM8, TRPV1); assay: Calcium imaging of human iSNs exposed to TRP channel ligands; format: cell-based
MEFs = assay: Reprogramming of MEFs in presence of EdU or mitotic inhibitor AraC; format: cell-based, mouse
Procedure: Immunohistochemistry, and RT-PCR: For immunofluorescence staining, cells were fixed 4% paraformaldehyde for 10 minutes at room temperature. Cells were then washed three times with PBS and subsequently permeabilized with 0.1% Triton X-100 (Sigma) in PBS. After washing and permeabilization cells were blocked in 5% horse serum for thirty minutes at room temperature. Primary staining was performed overnight at 4° C. in block. Secondary antibodies were diluted in blocking solution and stained room temperature for one hour. EdU staining was performed using Click-it EdU kit (C10337;Invitrogen) following manufacturer's instructions. […]
We examined whether the observed reprogramming of fibroblasts to the somatic sensory lineage requires cell division or specialized embryonic precursors. […] Second, to further block proliferation we applied the mitotic inhibitor arabinofuranosyl cytidine (AraC) to cultures continuously from three days post induction and quantified the number of Map2-positive cells on day 14.

[3] = mouse BN1 iSNs, KCl responders, 10 μM capsaicin, 100 μM menthol, 100 μM mustard oil
[4] = mouse BN2 iSNs, KCl responders, 10 μM capsaicin, 100 μM menthol, 100 μM mustard oil
[5] = human BN1 iSNs, KCl responders, 10 μM capsaicin, 100 μM menthol, 100 μM mustard oil
[6] = human BN2 iSNs, KCl responders, 10 μM capsaicin, 100 μM menthol, 100 μM mustard oil

| SMILES | iSNs exhibiting calcium transients in response to ligand [1, 3] | iSNs exhibiting calcium transients in response to ligand [1, 4] | iSNs exhibiting calcium transients in response to ligand [2, 5] | iSNs exhibiting calcium transients in response to ligand [2, 6] | inhibition of proliferative cells (MEFs; 4 μM) | effect of mitotic inhibition on number of neurons (Map2-positive cells) produced during reprogramming (MEFs; applied continuously from three days post induction, counted day 14, BN1 or BN2) | iSNs exhibiting calcium transients in response to ligand [1] | iSNs exhibiting calcium transients in response to ligand [2] |
| --- | --- | --- | --- | --- | --- | --- | --- | --- |
| COc1cc(CNC(=O)CCCC/C=C/C(C)C)ccc1O [capsaicin] | 19.7%±3.0 | 21.2%±3.5 | 4.4%±1.7 | 5.9%±3.3 | – | – | – | – |
| Nc1ccn([C@@H]2O[C@H](CO)[C@@H](O)[C@@H]2O)c(=O)n1 [AraC, arabinofuranosyl cytidine] | – | – | – | – | > 90% | did not significantly alter the number of neurons | – | – |
| C=CCN=C=S [mustard oil, allyl isothiocyanate] | – | – | – | – | – | – | 12.9%±3.8 and 12.5%±3.4 | 12.8%±4.5 and 8.8%±3.7 |
| CC1CCC(C(C)C)C(O)C1 (stereo not drawn) [menthol] | 15.4%±2.6 | 17.4%±4.3 | 4.4%±1.4 | 6.0%±2.3 | – | – | – | – |
